For assay [1], the target named is T1, SYK (Homo sapiens, UniProt P43405).
T1 construct: purchased BPS Bioscience, CA, USA
Kind of assay: SYK enzyme assay (Flash plate assay / Caliper mobility shift assay). It counts as biochemical. Summed up:
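Flashplate: 2.5 nM SYK, 400 nM biotinylated peptide and 10 μM ATP with 33P-ATP, pH 7.5, 1 h at 30 °C, EDTA stop, radioactivity read, background with 0.1 μM staurosporine. Caliper: 90 min at 25 °C in HEPES pH 7.5, 1 mM MgCl2, 1 mM DTT, mobility-shift percent conversion of fluorescent peptide. IC50 from dose-response in both.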

Assay [2] concerns the target GCN2 (Homo sapiens, UniProt Q9P2K8). Kind of assay: GCN2 enzyme assay (TR-FRET Lanthascreen, GFP-eIF2alpha substrate). It counts as biochemical. In outline: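 GCN2 (30 nM) incubated at room temperature with 10 μM ATP and 80 nM GFP-eIF2alpha in 50 mM Hepes pH 7.0, 10 mM MgCl2, 5 mM MnCl2, 2 mM DTT, 0.1% BSA, 1% DMSO. Reaction stopped with EDTA; phospho-eIF2alpha detected by antibody TR-FRET, excitation 340 nm.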

Molecules are shown by their SMILES.

Sequence of GCN2 (Q9P2K8 whole entry): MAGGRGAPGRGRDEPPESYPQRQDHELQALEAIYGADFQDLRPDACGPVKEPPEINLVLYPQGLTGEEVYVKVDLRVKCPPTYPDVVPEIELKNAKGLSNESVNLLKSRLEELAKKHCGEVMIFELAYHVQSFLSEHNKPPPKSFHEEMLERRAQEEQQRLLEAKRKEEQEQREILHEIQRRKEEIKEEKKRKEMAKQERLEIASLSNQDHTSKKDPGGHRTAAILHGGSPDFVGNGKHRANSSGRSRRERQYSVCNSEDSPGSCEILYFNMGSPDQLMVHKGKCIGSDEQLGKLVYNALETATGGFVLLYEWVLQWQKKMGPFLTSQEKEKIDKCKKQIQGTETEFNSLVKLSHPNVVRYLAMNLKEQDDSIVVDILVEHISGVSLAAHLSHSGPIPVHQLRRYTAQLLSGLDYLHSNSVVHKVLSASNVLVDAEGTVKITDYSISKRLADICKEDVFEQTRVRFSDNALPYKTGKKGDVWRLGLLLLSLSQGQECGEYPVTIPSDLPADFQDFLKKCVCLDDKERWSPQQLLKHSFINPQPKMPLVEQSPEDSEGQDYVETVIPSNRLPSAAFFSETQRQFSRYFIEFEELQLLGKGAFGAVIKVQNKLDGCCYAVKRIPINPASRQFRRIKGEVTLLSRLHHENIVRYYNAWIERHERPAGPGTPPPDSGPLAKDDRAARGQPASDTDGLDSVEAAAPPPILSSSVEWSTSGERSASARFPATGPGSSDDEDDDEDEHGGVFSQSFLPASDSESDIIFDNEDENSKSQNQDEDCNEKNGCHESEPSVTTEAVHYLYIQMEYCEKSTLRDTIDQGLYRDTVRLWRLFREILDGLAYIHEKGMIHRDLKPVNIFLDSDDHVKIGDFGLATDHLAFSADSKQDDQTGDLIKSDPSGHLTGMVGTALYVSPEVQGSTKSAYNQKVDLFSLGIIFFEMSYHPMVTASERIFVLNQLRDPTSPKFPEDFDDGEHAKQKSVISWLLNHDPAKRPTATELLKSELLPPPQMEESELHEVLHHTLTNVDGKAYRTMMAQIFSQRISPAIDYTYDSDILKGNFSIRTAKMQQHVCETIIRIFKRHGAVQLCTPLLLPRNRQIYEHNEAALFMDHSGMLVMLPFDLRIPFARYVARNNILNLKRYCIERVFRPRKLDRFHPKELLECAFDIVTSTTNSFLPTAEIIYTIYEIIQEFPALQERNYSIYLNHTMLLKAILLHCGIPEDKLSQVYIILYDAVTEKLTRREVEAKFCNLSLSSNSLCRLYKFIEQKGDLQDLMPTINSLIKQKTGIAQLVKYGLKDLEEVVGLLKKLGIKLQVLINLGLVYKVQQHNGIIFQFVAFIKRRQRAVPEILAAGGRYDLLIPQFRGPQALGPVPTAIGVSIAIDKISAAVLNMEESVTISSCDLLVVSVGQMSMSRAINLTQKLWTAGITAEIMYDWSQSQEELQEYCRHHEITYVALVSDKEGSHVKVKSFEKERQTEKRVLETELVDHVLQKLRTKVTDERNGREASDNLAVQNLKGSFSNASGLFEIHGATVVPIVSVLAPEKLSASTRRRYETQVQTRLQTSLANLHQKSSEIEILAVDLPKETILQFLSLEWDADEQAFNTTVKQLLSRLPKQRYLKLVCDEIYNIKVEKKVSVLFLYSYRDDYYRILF

By IC50 is commonly meant the concentration that inhibits the measured activity by half. As for `Cn1cc(-c2cncc3nc(Nc4cccc(N5CCOCC5)c4)nn23)cn1` [Compound A80, [5-(1-methyl-1H-pyrazol-4-yl)-[1,2,4]triazolo[1,5-a]pyrazin-2-yl]-(3-morpholin-4-yl-phenyl)-amine], the “SYK (enzyme assay) % at 1 μM” value in assay [1] (at 1 μM, 100% corresponds to zero effect, −50% corresponds to IC50) is on record as −26@1%. In addition, in assay [2], the half-maximal inhibitory concentration (IC50) is under 1000 nM.
Turning to `CC(=O)Nc1ccc(Nc2nc3cncc(-c4cnn(C)c4)n3n2)cc1C` [Compound A81, N-{2-methyl-4-[5-(1-methyl-1H-pyrazol-4-yl)-[1,2,4]triazolo[1,5-a]pyrazin-2-ylamino]-phenyl}-acetamide], the half-inhibitory concentration (IC50) is 1000 to 5000 nM in assay [1] and under 1000 nM in assay [2].
Taken in the same sequence, the figures for `Cc1cc(Nc2nc3cncc(-c4cnn(C)c4)n3n2)ccc1NC(=O)C1CCNCC1` [Compound A82, piperidine-4-carboxylic acid {2-methyl-4-[5-(1-methyl-1H-pyrazol-4-yl)-[1,2,4]triazolo[1,5-a]pyrazin-2-ylamino]-phenyl}-amide] were 1000 to 5000 nM and under 1000 nM.
In the same order, the values of `Cc1cc(Nc2nc3cncc(-c4cnn(C)c4)n3n2)ccc1NC(=O)C1CCOCC1` [Compound A83, tetrahydro-pyran-4-carboxylic acid {2-methyl-4-[5-(1-methyl-1H-pyrazol-4-yl)-[1,2,4]triazolo[1,5-a]pyrazin-2-ylamino]-phenyl}-amide] are 5000 to 10000 nM and under 1000 nM.
For `COc1cc(Nc2nc3cncc(-c4cnn(C)c4)n3n2)ccc1NC(=O)C1CCNCC1` [Compound A84, piperidine-4-carboxylic acid {2-methoxy-4-[5-(1-methyl-1H-pyrazol-4-yl)-[1,2,4]triazolo[1,5-a]pyrazin-2-ylamino]-phenyl}-amide], the IC50 is 5000 to 10000 nM in assay [1] and under 1000 nM in assay [2].
In the same order, the values of `COc1cc(Nc2nc3cncc(-c4cnn(C)c4)n3n2)ccc1NC(C)=O` [Compound A85, N-{2-methoxy-4-[5-(1-methyl-1H-pyrazol-4-yl)-[1,2,4]triazolo[1,5-a]pyrazin-2-ylamino]-phenyl}-acetamide] are 1000 to 5000 nM and under 1000 nM.
Taken in the same sequence, the figures for `COc1cc(Nc2nc3cncc(-c4cccc(O)c4)n3n2)ccc1N1CCN(C)CC1` [Compound A86, 3-{2-[3-methoxy-4-(4-methyl-piperazin-1-yl)-phenylamino]-[1,2,4]triazolo[1,5-a]pyrazin-5-yl}-phenol] were under 1000 nM and under 1000 nM.
Taken in the same sequence, the figures for `COc1cc(Nc2nc3cncc(-c4ccc(O)cc4)n3n2)ccc1N1CCN(C)CC1` [Compound A87, 4-{2-[3-methoxy-4-(4-methyl-piperazin-1-yl)-phenylamino]-[1,2,4]triazolo[1,5-a]pyrazin-5-yl}-phenol] were under 1000 nM and under 1000 nM.
As to `CN1CCN(c2ncc(Nc3nc4cncc(-c5cnn(C)c5)n4n3)cn2)CC1` [Compound A88, [2-(4-methyl-piperazin-1-yl)-pyrimidin-5-yl]-[5-(1-methyl-1H-pyrazol-4-yl)-[1,2,4]triazolo[1,5-a]pyrazin-2-yl]-amine], in assay [1] (at 3 μM, 100% corresponds to zero effect, −50% corresponds to IC50), the “SYK (enzyme assay) % at 3 μM” value was −13@3%. Also, the IC50 in assay [2] was under 1000 nM.
On to `COc1cc(Nc2nc3cncc(-c4cnn(C)c4)n3n2)ccc1NC(=O)C1CCOCC1` [Compound A89, tetrahydro-pyran-4-carboxylic acid {2-methoxy-4-[5-(1-methyl-1H-pyrazol-4-yl)-[1,2,4]triazolo[1,5-a]pyrazin-2-ylamino]-phenyl}-amide], for which the results for the half-maximal inhibitory concentration (IC50) in assay [1] and in assay [2] were 5000 to 10000 nM and under 1000 nM, respectively.
In the same order, the values of `COc1cc(Nc2nc3cncc(-c4ccc(N5CCOCC5)cc4)n3n2)ccc1N1CCN(C)CC1` [Compound A91, [3-methoxy-4-(4-methyl-piperazin-1-yl)-phenyl]-[5-(4-morpholin-4-yl-phenyl)-[1,2,4]triazolo[1,5-a]pyrazin-2-yl]-amine] are 1000 to 5000 nM and under 1000 nM.

For the origin of these results see patent US20150051202A1, “TRIAZOLOPYRAZINE DERIVATIVES” (Merck Patent GmbH, priority 2012, published 2015).
